Measured values reported in ChEMBL document CHEMBL1201862, “PubChem BioAssay data set” (2004).
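1) Cells in 96-well plates. 2) Compound, 48 h, 5 concentrations. 3) Linear interpolation between surrounding doses. 4) Unreached endpoint = highest concentration. At the GI50, growth is halved.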 Activity calls are given as the source filed them. Rule as the data show it: active = GI50 up to about 1.1 µM and inactive = higher.

Experiments:
Assay in all cases: NCI anticancer screen, dose series, 48 h
NCI/ADR-RES = tested on: NCI/ADR-RES
IGROV-1 = tested on: IGROV-1
T47D = tested on: T47D
SNB-19 = tested on: SNB-19
MDA-N = tested on: MDA-N
OVCAR-4 = tested on: OVCAR-4
SK-MEL-28 = tested on: SK-MEL-28
HCT-116 = tested on: HCT-116
786-0 = tested on: 786-0
NCI-H226 = tested on: NCI-H226
Malme-3M = tested on: Malme-3M
CAKI-1 = tested on: CAKI-1
UO-31 = tested on: UO-31
A498 = tested on: A498
Hs-578T = tested on: Hs-578T
COLO 205 = tested on: COLO 205
MOLT-4 = tested on: MOLT-4
NCI-H23 = tested on: NCI-H23
MCF7 = tested on: MCF7
SF-295 = tested on: SF-295

SMILES | GI50 (NCI/ADR-RES) | GI50 (IGROV-1) | GI50 (T47D) | GI50 (SNB-19) | GI50 (MDA-N) | GI50 (OVCAR-4) | GI50 (SK-MEL-28) | GI50 (HCT-116) | GI50 (786-0) | GI50 (NCI-H226) | GI50 (Malme-3M) | GI50 (CAKI-1) | GI50 (UO-31) | GI50 (A498) | GI50 (Hs-578T) | GI50 (COLO 205) | GI50 (MOLT-4) | GI50 (NCI-H23) | GI50 (MCF7) | GI50 (SF-295)
CN(C)CCOc1ccc(-c2c(Oc3ccc(Cl)cc3)c(=O)oc3ccccc23)cc1 | > 35.1 µM (inactive) | 4.7 µM (inactive) | 8.87 µM (inactive) | 16.9 µM (inactive) | 2.61 µM (inactive) | 9.68 µM (inactive) | 3.27 µM (inactive) | 3.82 µM (inactive) | 4.27 µM (inactive) | > 35.6 µM (inactive) | 5.83 µM (inactive) | 12.9 µM (inactive) | 5.43 µM (inactive) | 19.4 µM (inactive) | 8.59 µM (inactive) | 3.61 µM (inactive) | 5.47 µM (inactive) | 14.5 µM (inactive) | 4.41 µM (inactive) | 5.36 µM (inactive)
O=C(Nc1ccccc1)OCCN=C1c2ccccc2C(Br)C(Br)c2ccccc21 (stereo not given) | 11.7 µM (inactive) | 6.52 µM (inactive) | 8.69 µM (inactive) | 14.9 µM (inactive) | 3.82 µM (inactive) | 5.38 µM (inactive) | 9.06 µM (inactive) | 3.88 µM (inactive) | 2.82 µM (inactive) | 12.6 µM (inactive) | 6.15 µM (inactive) | 6.49 µM (inactive) | 2.02 µM (inactive) | 13.2 µM (inactive) | 12.4 µM (inactive) | 4.94 µM (inactive) | 2.01 µM (inactive) | 10.4 µM (inactive) | 5.68 µM (inactive) | 17.1 µM (inactive)
C#CCN(Cc1ccc2nc(OC)c(OC)nc2c1)c1cc(OC)c(OC)c(OC)c1 | 10.7 µM (inactive) | 19.1 µM (inactive) | 18.4 µM (inactive) | 26.6 µM (inactive) | 7.31 µM (inactive) | 13.4 µM (inactive) | 40.9 µM (inactive) | 16.7 µM (inactive) | 24 µM (inactive) | 15.7 µM (inactive) | 23 µM (inactive) | 24.2 µM (inactive) | 22.1 µM (inactive) | 35.5 µM (inactive) | 21.2 µM (inactive) | 17.4 µM (inactive) | 16.9 µM (inactive) | 8.36 µM (inactive) | 11.9 µM (inactive) | 16.3 µM (inactive)
O=C(Nc1ccccc1)OC1OC(COC(=O)c2ccccc2)C(OC(=O)c2ccccc2)C1OS(=O)(=O)c1ccc([N+](=O)[O-])cc1 (stereo not given) | > 100 µM (inactive) | > 100 µM (inactive) | > 100 µM (inactive) | > 100 µM (inactive) | > 100 µM (inactive) | > 100 µM (inactive) | > 100 µM (inactive) | > 100 µM (inactive) | > 100 µM (inactive) | > 100 µM (inactive) | > 100 µM (inactive) | > 100 µM (inactive) | > 100 µM (inactive) | > 100 µM (inactive) | 78.7 µM (inactive) | > 100 µM (inactive) | > 100 µM (inactive) | > 100 µM (inactive) | > 100 µM (inactive) | > 100 µM (inactive)
O=C1C(Cl)=C(OCCCCl)C(=O)c2c(O)ccc(O)c21 | 3.69 µM (inactive) | 4.18 µM (inactive) | 2.34 µM (inactive) | 18.3 µM (inactive) | 1.52 µM (inactive) | 2.74 µM (inactive) | 2.08 µM (inactive) | 1.85 µM (inactive) | 2.04 µM (inactive) | 16.9 µM (inactive) | 1.74 µM (inactive) | 1.21 µM (inactive) | 6.55 µM (inactive) | 15.2 µM (inactive) | 4.91 µM (inactive) | 1.53 µM (inactive) | 0.189 µM (active) | 2.19 µM (inactive) | 1.55 µM (inactive) | 6.17 µM (inactive)
O=C1CC2(CCCc3sccc32)C(=O)N1 (stereo not given) | > 100 µM (inactive) | > 100 µM (inactive) | > 100 µM (inactive) | > 100 µM (inactive) | > 100 µM (inactive) | > 100 µM (inactive) | > 100 µM (inactive) | > 100 µM (inactive) | > 100 µM (inactive) | > 100 µM (inactive) | > 100 µM (inactive) | > 100 µM (inactive) | > 100 µM (inactive) | > 100 µM (inactive) | > 100 µM (inactive) | > 100 µM (inactive) | > 100 µM (inactive) | > 100 µM (inactive) | > 100 µM (inactive) | > 100 µM (inactive)
CCOC(=O)/C(C(C)=O)=C(\OC(C)=O)c1ccncc1C(=O)O | > 100 µM (inactive) | > 100 µM (inactive) | > 100 µM (inactive) | > 100 µM (inactive) | > 100 µM (inactive) | > 100 µM (inactive) | > 100 µM (inactive) | > 100 µM (inactive) | > 100 µM (inactive) | > 100 µM (inactive) | > 100 µM (inactive) | > 100 µM (inactive) | > 100 µM (inactive) | > 100 µM (inactive) | > 100 µM (inactive) | > 100 µM (inactive) | > 100 µM (inactive) | > 100 µM (inactive) | > 100 µM (inactive) | > 100 µM (inactive)
CN1C(=O)C23CCCCC2CC1(c1ccccc1)S3 (stereo not given) | 38.5 µM (inactive) | > 100 µM (inactive) | 42.6 µM (inactive) | > 100 µM (inactive) | > 100 µM (inactive) | 34.2 µM (inactive) | > 100 µM (inactive) | 60.3 µM (inactive) | > 100 µM (inactive) | > 100 µM (inactive) | > 100 µM (inactive) | 68.2 µM (inactive) | 63 µM (inactive) | > 100 µM (inactive) | 99.1 µM (inactive) | 71.9 µM (inactive) | 38.3 µM (inactive) | 66.8 µM (inactive) | 78.2 µM (inactive) | 65.3 µM (inactive)
Cc1cc2oc(C)c(S(=O)(=O)NC(=O)Nc3ccc(Cl)cc3)c(=O)c2c(=O)o1 | > 100 µM (inactive) | > 100 µM (inactive) | > 100 µM (inactive) | > 100 µM (inactive) | > 100 µM (inactive) | > 100 µM (inactive) | > 100 µM (inactive) | > 100 µM (inactive) | > 100 µM (inactive) | > 100 µM (inactive) | > 100 µM (inactive) | > 100 µM (inactive) | > 100 µM (inactive) | > 100 µM (inactive) | > 100 µM (inactive) | > 100 µM (inactive) | > 100 µM (inactive) | > 100 µM (inactive) | > 100 µM (inactive) | > 100 µM (inactive)
CC(=O)c1c(C(F)(F)F)[n+]([O-])c2cc(Cl)c(Cl)cc2[n+]1[O-] | 1.5 µM (inactive) | 0.111 µM (active) | 0.338 µM (active) | 0.83 µM (active) | 1.12 µM (inactive) | 1.4 µM (inactive) | 1.88 µM (inactive) | 0.249 µM (active) | 0.168 µM (active) | 1.46 µM (inactive) | 0.685 µM (active) | 1.44 µM (inactive) | 0.41 µM (active) | 1.15 µM (inactive) | 0.483 µM (active) | 0.746 µM (active) | 0.0798 µM (active) | 0.938 µM (active) | 0.265 µM (active) | 0.719 µM (active)
O/N=C1\CSc2ccccc2C1 | > 100 µM (inactive) | > 100 µM (inactive) | > 100 µM (inactive) | > 100 µM (inactive) | > 100 µM (inactive) | > 100 µM (inactive) | > 100 µM (inactive) | > 100 µM (inactive) | > 100 µM (inactive) | > 100 µM (inactive) | > 100 µM (inactive) | 90.2 µM (inactive) | > 100 µM (inactive) | 51.6 µM (inactive) | 41.8 µM (inactive) | > 100 µM (inactive) | > 100 µM (inactive) | > 100 µM (inactive) | > 100 µM (inactive) | > 100 µM (inactive)
N=c1oc2ccc(Cl)cc2cc1C(=O)NCc1ccccc1 | 27.4 µM (inactive) | > 100 µM (inactive) | 39 µM (inactive) | > 100 µM (inactive) | > 81.7 µM (inactive) | > 100 µM (inactive) | > 100 µM (inactive) | > 100 µM (inactive) | > 100 µM (inactive) | > 100 µM (inactive) | 18.4 µM (inactive) | > 100 µM (inactive) | > 61.7 µM (inactive) | 63.5 µM (inactive) | 30.5 µM (inactive) | > 100 µM (inactive) | 31.2 µM (inactive) | > 100 µM (inactive) | > 100 µM (inactive) | > 100 µM (inactive)
CC1C[C@]2(C)C(=O)N(c3ccccc3)C(=N)[C@@H]2N(C)c2ccccc21 (stereo not given in full) | > 100 µM (inactive) | > 100 µM (inactive) | > 100 µM (inactive) | > 100 µM (inactive) | > 100 µM (inactive) | > 100 µM (inactive) | > 100 µM (inactive) | > 100 µM (inactive) | > 100 µM (inactive) | > 100 µM (inactive) | > 100 µM (inactive) | > 100 µM (inactive) | > 100 µM (inactive) | > 100 µM (inactive) | > 100 µM (inactive) | > 100 µM (inactive) | > 100 µM (inactive) | > 100 µM (inactive) | > 100 µM (inactive) | > 100 µM (inactive)
C/C(=N/S(=O)(=O)c1ccc(Cl)c(Cl)c1)OCC(C)(C)C | > 100 µM (inactive) | > 100 µM (inactive) | > 100 µM (inactive) | > 100 µM (inactive) | > 100 µM (inactive) | > 100 µM (inactive) | > 100 µM (inactive) | > 100 µM (inactive) | > 100 µM (inactive) | > 100 µM (inactive) | > 100 µM (inactive) | > 100 µM (inactive) | > 100 µM (inactive) | > 100 µM (inactive) | > 100 µM (inactive) | > 100 µM (inactive) | > 100 µM (inactive) | > 100 µM (inactive) | > 100 µM (inactive) | > 100 µM (inactive)
